From patent publication US4940711A, “Antihypertensive N-piperazinylalkanoylanilides” (Recordati, S.A., Chemical and Pharmaceutical Company, priority 1983, dated 1990)
Structures can show the parent of a compound that is named as a salt.

Assays:
[1] = tested on: spontaneously hypertensive rats; assay: Antihypertensive activity (systolic blood pressure, indirect tail-cuff method) in conscious spontaneously hypertensive rats; format: in vivo; conditions: Rattus norvegicus, po; os, conscious SHR, 1, 3, 5 and 7 hours after administration; from linear regression of dose-response curve; hydrochloride salt except AC 2, 4 and 9 (free bases); read-out: ED25 (drug dose producing a 25% decrease in systolic blood pressure)
Experimental: Antihypertensive activity was evaluated in male spontaneously hypertensive rats (SHR, Wister-Kyoto strain, 15-25 weeks old). The determination of blood pressure was performed by the indirect method (M. Gerald et al, Arzneim.-Forsch., 18, 1825, 1968). The animals were prewarmed in a heating chamber at a temperature from 35° to 37° C. for a period of 15 minutes before administering the compounds. The compounds tested by the oral route were dissolved or suspended in a 0.5% methylcellulose solution. Controls were given only the vehicle. Systolic blood pressure and heart rate were measured 1, 3, 5 and 7 hours after drug administration by means of a tail-cuff and the pulse pick-up method using a recorder.
In the Table I, the antihypertensive activity was expressed as ED25, which is the drug dose producing a 25% decrease in systolic blood pressure in conscious spontaneously hypertensive rats. The ED25 was calculated from the linear regression of the dose-response curve.
(§1) ^a all compounds were tested as the hydrochloride salt, except for AC
(§2) 2, 4 and 9 (tested as free bases)

[2] = LD50 in the mouse per os (acute toxicity); conditions: in vivo, po, tested as hydrochloride salt except AC 2, 4 and 9 (free bases)
Experimental: The LD50 of the compounds according to the invention was determined in the mouse per os following the method described by C. S. Weil (Biometrics,8, 249, 1952).
In the following Table I, the numbers under AC (active compound) indicate the compounds described in the corresponding Examples (thus "1" indicates the compound prepared in Example 1).
as §1, §2

Row | SMILES | ED25 [1] [mg/kg] | LD50 [2] [mg/kg]
1 | COc1ccccc1N1CCN(CCC(=O)Nc2cccc(S(N)(=O)=O)c2)CC1 [Example 13, 3-Sulphamoyl-β-[4-(2-methoxyphenyl)-1-piperazinyl]-propionylanilide hydrate] | 100 | > 3000
2 | COc1ccccc1N1CCN(CCC(=O)Nc2ccc(C#N)cc2)CC1 [Example 6f, 4-cyano-β-[4-(2-methoxyphenyl)-1-piperazinyl]-propionylanilide] | 17.2 | 320
3 | COc1ccccc1N1CCN(CCC(=O)Nc2ccc(S(C)(=O)=O)cc2)CC1 [Example 2, 4-Methylsulphonyl-β-[4-(2-methoxyphenyl)-1-piperazinyl]-propionylanilide] | 7.5 | > 3000
4 | COc1ccccc1N1CCN(CCC(=O)Nc2cccc(C(F)(F)F)c2)CC1 [Example 6b, 3-trifluoromethyl-β-[4-(2-methoxyphenyl)-1-piperazinyl]-propionylanilide hydrochloride] | 48.8 | 1600
5 | COc1ccccc1N1CCN(CCC(=O)Nc2cccc(Cl)c2)CC1 [Example 14, 3-Chloro-β-[4-(2-methoxyphenyl)-1-piperazinyl]-propinylanilide] | 100 | > 3000
6 | COc1ccccc1N1CCN(CC(=O)Nc2ccc(N)cc2)CC1 [Example 8a] | 70.2 | 1000
7 | COc1cccc(NC(=O)CCN2CCN(c3ccccc3OC)CC2)c1 [Example 6d, 3-methoxy-β-[4-(2-methoxyphenyl)-1-(piperazinyl]-propionylanilide hydrochloride] | 69 | 649
8 | COc1ccccc1N1CCN(CCC(=O)Nc2ccc(C(N)=O)cc2)CC1 [Example 5, 4-Carbamoyl-β-[4-(2-methoxyphenyl)-1-piperazinyl]-propionylanilide] | 54.5 | > 3000
9 | COc1ccccc1N1CCN(CCC(=O)Nc2cc(OC)c(OC)c(OC)c2)CC1 [Example 20, 3,4,5-Trimethoxy-β-[4-(2-methoxyphenyl)-1-piperazinyl]-propionylanilide hydrochloride] | 60 | 730
10 | COc1ccccc1N1CCN(CCC(=O)Nc2ccc(C(C)=O)cc2)CC1 [Example 6a, 4-acetyl-β-[4-(2-methoxyphenyl)-1-piperazinyl]-propionylanilide] | 58.5 | 2200
11 | COc1ccccc1N1CCN(CCC(=O)Nc2ccc3c(c2)OCO3)CC1 [Example 19, 3,4-Methylenedioxy-β-[4-(2-methoxyphenyl)-1-piperazinyl]-propionylanilide] | 100 | 340
12 | COc1ccccc1N1CCN(CCC(=O)Nc2ccc(C(C)O)cc2)CC1 (stereo not drawn) [Example 9, 4-(1Hydroxyethyl)-β-[4-(2-methoxyphenyl)-1-piperazinyl]-propionylanilide] | 69 | 537
13 | COc1ccccc1N1CCN(CCC(=O)Nc2ccc([N+](=O)[O-])cc2)CC1 [Example 7, 4-Nitro-β-[4-(2-methoxyphenyl)-1-piperazinyl]-propionylanilide] | 50.5 | 2100
14 | COc1ccccc1N1CCN(CCC(=O)Nc2ccc(S(N)(=O)=O)cc2)CC1 [Example 4, 4-Sulphamoyl-β-[4-(2-methoxyphenyl)-1-piperazinyl]-propionylanilide] | 8.1 | > 3000
15 | COc1ccccc1N1CCN(CCC(=O)Nc2ccc(S(=O)(=O)N(C)C)cc2)CC1 [Example 21, 4-(Dimethylsulphamoyl)-β-[4-(2-methoxyphenyl)-1-piperazinyl]-propionylanilide] | 60 | > 3000
16 | COc1ccccc1N1CCN(CCC(=O)Nc2ccc(S(=O)(=O)NC(C)=O)cc2)CC1 [Example 11, 4-Acetylsulphamoyl-β-[4-(2-methoxyphenyl)-1-piperazinyl]-propionylanilide] | 100 | > 3000
17 | COc1ccccc1N1CCN(C(C)CC(=O)Nc2ccc(S(N)(=O)=O)cc2)CC1 (stereo not drawn) [Example 10, 4-Sulphamoyl-β-[4-(2-methoxyphenyl)-1-piperazinyl]-butyrylanilide] | 8.7 | > 3000
18 | COc1ccccc1N1CCN(CCC(=O)Nc2ccc(NC(C)=O)cc2)CC1 [Example 12, 4-Acetylamino-β-[4-(2-methoxyphenyl)-1-piperazinyl]-propionylanilide] | 100 | > 3000
19 | COc1ccc(NC(=O)CCN2CCN(c3ccccc3OC)CC2)cc1 [Example 6c, 4-methoxy-β-[4-(2-methoxyphenyl)-1-piperazinyl]-propionylanilide] | 10 | > 3000
